According to paper PMC9102066, “Cloning and Functional Characterization of Dog OCT1 and OCT2: Another Step in Exploring Species Differences in Organic Cation Transporters” (International Journal of Molecular Sciences, 2022):
Structures can show the parent of a compound that is named as a salt. Where two headings read alike, the source gives them in different places.

Columns and labels:
dog OCT1 = test: Uptake in HEK293 cells stably overexpressing dog OCT1; conditions: for vmax ± SEM, dOCT1: OCT1-mediated uptake, HEK293, 2 min, 37 °C, pH 7.4, control cells subtracted; for fold higher transport capacity by dog than mouse OCT1 / fold lower affinity by dog than mouse OCT1: dog OCT1 versus mouse OCT1; for Km at 2 min: dog; for CLint ± SEM, dOCT1: intrinsic clearance = vmax divided by KM for each experiment
Description: The total uptake is shown for the overexpressing and control cells (left hand side). OCT1-mediated uptake (right hand side) was calculated by subtracting the uptake of control cells (pcDNA5) from the uptake of OCT1-overexpressing cells. The means and standard errors of the means are shown for at least three independent experiments.
For generation and characterization, see the Supplementary Methods, Figure S7, and [29, 47]. Cells were cultured in Dulbecco’s Modified Eagle’s Medium (DMEM) supplemented with 10% FBS, 100 U/mL penicillin, and 100 µg/mL streptomycin at 37 °C and 5% CO2. Cells were passaged twice a week.
At 48 h prior to the experiment, 6 × 10^5 cells were seeded per well in 12-well plates pre-coated with poly-D-lysine.
Cellular uptake experiments were performed at 37 °C and pH 7.4 using Hanks’ Buffered Salt Solution (HBSS) supplemented with 10 mM HEPES (referred to as HBSS+ in the following). Cells were washed with 1 mL pre-warmed (37 °C) HBSS+ and uptake was initiated by adding 400 µL of pre-warmed HBSS+ containing the substrate. Uptake was allowed for exactly 2 min and stopped by adding 2 mL ice-cold HBSS+. Cells were washed twice with 2 mL ice-cold HBSS+ then lysed with 80% acetonitrile supplemented with internal standard. The intracellularly accumulated substrate concentrations were measured using LC-MS/MS as described in the following and normalized to the amount of total protein in the samples as measured using the bicinchoninic acid assay.
Intracellular substrate concentrations were quantified using LC-MS/MS. […] The pellet was reconstituted with 200 µL 0.1% formic acid and between 5 and 10 µL was injected into the LC-MS/MS system (Table S2).
An API4000 QTRAP tandem mass spectrometer with ESI interface (AB SCIEX, Darmstadt, Germany) coupled to a Shimadzu Nexera X2 UHPLC system with LC 30AD pumps and SiL 30AC autosampler (Shimadzu, Duisburg, Germany) was used for analysis.
Intrinsic clearance CLint was calculated by dividing vmax by KM for each experiment. Kinetic parameters were compared between OCT1 orthologs using an ANOVA followed by Tukey’s honestly significant difference post hoc comparisons in SPSS Statistics version 28 (SPSS Inc., IBM, Chicago, IL, USA).

human OCT1 = target: T1, human OCT1 (Homo sapiens, UniProt O15245); test: Uptake in HEK293 cells stably overexpressing human OCT1; format: in vitro ADME; conditions: for CLint ± SEM, hOCT1: intrinsic clearance = vmax divided by KM for each experiment
T1 construct: expressed in transfected cells; host or cells: HEK293 (Flp-In system)
T1 sequence (O15245 1-554): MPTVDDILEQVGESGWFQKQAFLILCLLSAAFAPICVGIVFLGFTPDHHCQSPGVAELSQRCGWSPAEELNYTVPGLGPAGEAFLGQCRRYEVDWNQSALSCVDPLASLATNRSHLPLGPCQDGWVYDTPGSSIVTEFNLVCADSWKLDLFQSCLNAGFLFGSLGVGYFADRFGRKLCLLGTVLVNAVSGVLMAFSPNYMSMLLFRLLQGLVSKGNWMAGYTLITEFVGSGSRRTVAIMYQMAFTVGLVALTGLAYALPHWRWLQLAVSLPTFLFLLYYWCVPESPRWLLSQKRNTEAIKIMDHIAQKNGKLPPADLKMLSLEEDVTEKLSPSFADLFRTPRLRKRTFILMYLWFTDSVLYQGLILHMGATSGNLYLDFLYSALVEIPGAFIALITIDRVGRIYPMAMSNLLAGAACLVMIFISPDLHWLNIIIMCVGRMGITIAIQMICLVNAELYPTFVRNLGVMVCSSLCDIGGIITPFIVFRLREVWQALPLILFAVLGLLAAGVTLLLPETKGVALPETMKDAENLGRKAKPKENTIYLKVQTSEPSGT
Excerpt: (§1) Cells were passaged twice a week.
(§2) Intracellular substrate concentrations were quantified using LC-MS/MS.

mouse OCT1 = target: T2, mouse OCT1 (Mus musculus, UniProt O08966); test: Uptake in HEK293 cells stably overexpressing mouse OCT1; format: in vitro ADME; conditions: intrinsic clearance = vmax divided by KM for each experiment
T2 construct: expressed in transfected cells; host or cells: HEK293 (Flp-In system)
T2 sequence (O08966 1-556): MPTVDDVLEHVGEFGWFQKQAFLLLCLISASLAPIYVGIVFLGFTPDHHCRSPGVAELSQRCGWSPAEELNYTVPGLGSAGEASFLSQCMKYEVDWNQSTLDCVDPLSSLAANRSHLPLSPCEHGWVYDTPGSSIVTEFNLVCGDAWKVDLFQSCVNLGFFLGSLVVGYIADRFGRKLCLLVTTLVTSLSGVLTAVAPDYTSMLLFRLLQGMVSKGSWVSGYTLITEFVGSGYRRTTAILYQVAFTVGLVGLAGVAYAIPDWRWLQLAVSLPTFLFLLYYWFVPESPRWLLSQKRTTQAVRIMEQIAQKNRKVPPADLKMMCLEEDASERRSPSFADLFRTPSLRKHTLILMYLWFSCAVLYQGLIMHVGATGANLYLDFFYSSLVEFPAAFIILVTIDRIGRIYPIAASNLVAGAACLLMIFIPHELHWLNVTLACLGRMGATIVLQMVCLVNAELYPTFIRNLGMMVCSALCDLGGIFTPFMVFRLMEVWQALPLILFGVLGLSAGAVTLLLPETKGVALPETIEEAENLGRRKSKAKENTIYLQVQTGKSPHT
Excerpt: as §1, §2

dog OCT2 = test: Uptake in HEK293 cells stably overexpressing dog OCT2; format: in vitro ADME; conditions: for vmax ± SEM, dOCT2 / Km at 2 min: OCT2-mediated uptake, HEK293, 2 min; for vmax ± SEM, dOCT2: 37 °C, pH 7.4, control cells subtracted; for Km at 2 min: dog, Michaelis–Menten fit, read-out: KM ± SEM, dOCT2; for CLint ± SEM, dOCT2: intrinsic clearance = vmax divided by KM for each experiment
Excerpt: as §1, §2

human OCT2 = target: T3, human OCT2 (Homo sapiens, UniProt O15244); test: Uptake in HEK293 cells stably overexpressing human OCT2; format: in vitro ADME; conditions: for CLint ± SEM, hOCT2: intrinsic clearance = vmax divided by KM for each experiment
T3 construct: expressed in transfected cells; host or cells: HEK293 (Flp-In system)
T3 sequence (O15244 1-555): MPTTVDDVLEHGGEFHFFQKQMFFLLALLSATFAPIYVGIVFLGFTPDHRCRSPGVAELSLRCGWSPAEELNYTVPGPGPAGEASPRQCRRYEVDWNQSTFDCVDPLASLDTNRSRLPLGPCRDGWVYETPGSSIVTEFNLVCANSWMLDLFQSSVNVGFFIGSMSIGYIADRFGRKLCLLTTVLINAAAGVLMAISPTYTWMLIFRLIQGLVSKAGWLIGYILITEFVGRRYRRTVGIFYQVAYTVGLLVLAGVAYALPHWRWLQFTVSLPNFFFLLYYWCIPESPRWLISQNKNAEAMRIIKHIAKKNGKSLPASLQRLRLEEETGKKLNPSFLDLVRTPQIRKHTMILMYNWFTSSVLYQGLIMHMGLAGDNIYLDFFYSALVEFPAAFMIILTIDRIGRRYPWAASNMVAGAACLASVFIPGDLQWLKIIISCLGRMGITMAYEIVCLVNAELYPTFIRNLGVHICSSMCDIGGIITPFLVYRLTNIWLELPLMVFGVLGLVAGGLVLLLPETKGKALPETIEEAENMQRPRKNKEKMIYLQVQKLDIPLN
Excerpt: as §1, §2

[1] = HEK293 cells stably overexpressing dog OCT1, pH 7.4

SMILES	vmax ± SEM, dOCT1 (dog OCT1)	fold higher transport capacity by dog than mouse OCT1 (dog OCT1)	fold lower affinity by dog than mouse OCT1 (dog OCT1)	Km at 2 min (dog OCT1; [1])	CLint ± SEM, dOCT1 (dog OCT1)	CLint ± SEM, hOCT1 (human OCT1)	CLint ± SEM, mOCT1 (mouse OCT1)	CLint ± SEM, hOCT2 (human OCT2)	Km at 2 min (dog OCT1; pH 7.4)	vmax ± SEM, dOCT2 (dog OCT2)	CLint ± SEM, dOCT2 (dog OCT2)	also measured
CCCC[N+]1(C)[C@@H]2C[C@@H](OC(=O)[C@H](CO)c3ccccc3)C[C@H]1[C@@H]1O[C@@H]12 (stereo partly shown) [Butylscopolamine, butylscopolamine bromide]	1383 ± 112 pmol × min^−1 × mg Protein^−1	1.8 fold	2.9 fold	18.7 ± 3.32 µM	80.5 ± 12.3 µL × min^−1 × mg Protein^−1	84.4 ± 6.76 µL × min^−1 × mg Protein^−1	131 ± 25.6 µL × min^−1 × mg Protein^−1	81.6 ± 2.16 µL × min^−1 × mg Protein^−1	–	–	–	difference in uptake kinetics between dog and human OCT1, in words (dog OCT1; dog OCT1 versus human OCT1): no significant differences; CLint ± SEM, dOCT1 (dog OCT1; listed as butylscopolamine): 122 µL × min^−1 × mg Protein^−1; fold lower transport by dog OCT2 compared to human OCT2 (dog OCT2; dog OCT2 versus human OCT2): 10 fold; uptake by dog OCT2 cells compared to control cells, in words (dog OCT2; especially at low concentrations, data could not be fitted to the Michaelis–Menten equation): only a slight increase
CC(Cc1ccc(O)cc1)NCC(O)c1cc(O)cc(O)c1 (stereo not shown) [Fenoterol, Fenoterol hydrochloride]	–	–	–	–	80.7 ± 7.76 µL × min^−1 × mg Protein^−1	88.3 ± 3.85 µL × min^−1 × mg Protein^−1	88.5 ± 15.5 µL × min^−1 × mg Protein^−1	28.0 ± 0.95 µL × min^−1 × mg Protein^−1	16.8 ± 1.09 µM	–	–	fold lower affinity (higher KM) by dog OCT1 than human OCT1 (dog OCT1; dog OCT1 versus human OCT1): 14.3 fold; CLint ± SEM, dOCT1 (dog OCT1; listed as fenoterol): 80.7 µL × min^−1 × mg Protein^−1; fold higher affinity (human OCT1 relative to dog OCT1, as worded in the discussion) (human OCT1; discussion wording, direction not spelled out): 14.3 fold; CLint ± SEM, hOCT1 (human OCT1; listed as fenoterol): 88.3 µL × min^−1 × mg Protein^−1; CLint ± SEM, mOCT1 (mouse OCT1; listed as fenoterol): 88.5 µL × min^−1 × mg Protein^−1
CN(C)C(=N)N=C(N)N [Metformin, metformin hydrochloride]	11,373 ± 714 pmol × min^−1 × mg Protein^−1	–	–	204 ± 41.8 µM	63.1 ± 12.0 µL × min^−1 × mg Protein^−1	–	38.7 ± 6.23 µL × min^−1 × mg Protein^−1	39.9 ± 5.27 µL × min^−1 × mg Protein^−1	–	21,578 ± 606 pmol × min^−1 × mg Protein^−1	59.2 ± 2.76 µL × min^−1 × mg Protein^−1	vmax ± SEM, hOCT1 (human OCT1; OCT1-mediated uptake, HEK293, 2 min, 37 °C, pH 7.4, control cells subtracted): 10,465 ± 1306 pmol × min^−1 × mg Protein^−1; Km at 2 min (human OCT1; human, HEK293 cells stably overexpressing human OCT1, pH 7.4, OCT1-mediated uptake, HEK293, 2 min, Michaelis–Menten fit, read-out: KM ± SEM, hOCT1): 1090 ± 297 µM; Km at 2 min (dog OCT2; HEK293 cells stably overexpressing dog OCT2, pH 7.4): 365 ± 11.5 µM; vmax ± SEM, hOCT2 (human OCT2; OCT2-mediated uptake, HEK293, 2 min, 37 °C, pH 7.4, control cells subtracted): 29,650 ± 1457 pmol × min^−1 × mg Protein^−1; Km at 2 min (human OCT2; human, HEK293 cells stably overexpressing human OCT2, pH 7.4, OCT2-mediated uptake, HEK293, 2 min, Michaelis–Menten fit, read-out: KM ± SEM, hOCT2): 766 ± 95.4 µM
O=C(O[C@H]1C[C@H]2CC[C@@H](C1)[N+]21CCCC1)C(O)(c1ccccc1)c1ccccc1 [Trospium, trospium chloride]	835 ± 64.9 pmol × min^−1 × mg Protein^−1	3.4 fold	4.4 fold	–	146 ± 10.3 µL × min^−1 × mg Protein^−1	117 ± 12.7 µL × min^−1 × mg Protein^−1	180 ± 37.5 µL × min^−1 × mg Protein^−1	278 ± 40.5 µL × min^−1 × mg Protein^−1	5.72 ± 0.3 µM	224 ± 14.6 pmol × min^−1 × mg Protein^−1	106 ± 8.78 µL × min^−1 × mg Protein^−1	fold lower affinity by dog OCT2 than human OCT2 (dog OCT2; dog OCT2 versus human OCT2): 5.7 fold; Km at 2 min (dog OCT2; pH 7.4): 2.18 ± 0.27 µM
